Source: patent US12606572B2, “Substituted heterocycles and uses thereof” (Kumquat Biosciences Inc., priority 2023, dated 2026)

Tests used:
KRAS WT = molecular target: T1, KRAS WT (Homo sapiens, UniProt P01116); assay: HTRF assay, interaction of GST-tagged K-Ras with His-tagged hSOS1 (KRAS wildtype); assay type: biochemical; settings: <500 nM, read-out: Inhibition of KRAS WT (IC50)
T1 construct: made in house; host or cells: E. coli BL21 (DE3)
How it was run: (§1)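 GST-K-Ras (G12S or WT) with anti-GST-Eu donor mixed with His-hSOS1 and anti-6His-XL665 acceptor in ~5 mM HEPES pH 7.4, 150 mM NaCl, 1 mM DTT, 0.05% BSA, 0.0025% Igepal. After ~10 min or longer, HTRF 665/620 nm ratio read.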

KRAS G12S = molecular target: T2, KRAS G12S (Homo sapiens, UniProt P01116, G12S); assay: HTRF assay, interaction of GST-tagged K-Ras with His-tagged hSOS1 (KRAS G12S); assay type: biochemical; settings: <500 nM, read-out: Inhibition of KRAS G12S (IC50)
T2 construct: made in house; host or cells: E. coli BL21 (DE3)
How it was run: as §1

T1 sequence (P01116 1-188 isoform P01116-2): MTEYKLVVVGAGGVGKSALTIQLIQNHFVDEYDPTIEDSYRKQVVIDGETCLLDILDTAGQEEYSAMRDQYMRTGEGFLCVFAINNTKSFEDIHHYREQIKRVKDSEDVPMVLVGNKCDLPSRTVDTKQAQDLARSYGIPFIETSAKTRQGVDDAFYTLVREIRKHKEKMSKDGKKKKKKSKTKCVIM
T2 sequence (P01116 1-188 isoform P01116-2 G12S): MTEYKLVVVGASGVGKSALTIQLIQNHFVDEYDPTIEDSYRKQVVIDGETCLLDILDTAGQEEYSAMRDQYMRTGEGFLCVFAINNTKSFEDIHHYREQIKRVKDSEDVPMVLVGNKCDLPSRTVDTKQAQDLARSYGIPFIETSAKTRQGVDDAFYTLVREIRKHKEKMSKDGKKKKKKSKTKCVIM

Compound: Cc1cn(C(=O)N2CC[C@@H](N3CCOc4nc(-c5cc(N)c(F)c(C)c5C(F)(F)F)c(F)c5nc(OC[C@@]67CCCN6C[C@H](F)C7)nc3c45)[C@H]2C)c(C)n1 [Compound 487, ((2R,3R)-3-(5-(5-amino-4-fluoro-3-methyl-2-(trifluoromethyl)phenyl)-4-fluoro-2-(((2R,7aS)-2-fluorotetrahydro-1H-pyrrolizin-7a(5H)-yl)methoxy)-8,9-dihydro-10H-7-oxa-1,3,6,10-tetraazacyclohepta[de]naphthalen-10-yl)-2-methylpyrrolidin-1-yl)(2,4-dimethyl-1H-imidazol-1-yl) methanone]
- IC50 (KRAS WT): < 500 nM
- IC50 (KRAS G12S): < 500 nM

Compound: C=C(F)C(=O)N1CC(CN2CCOc3c(Cl)c(-c4ccc(F)c5sc(N)c(C#N)c45)c(F)c4nc(OC[C@@]56CCCN5C[C@H](F)C6)nc2c34)C1 [Compound 491, 2-amino-4-(8-chloro-10-fluoro-4-((1-(2-fluoroacryloyl)azetidin-3-yl)methyl)-2-(((2R,7aS)-2-fluorotetrahydro-1H-pyrrolizin-7a(5H)-yl)methoxy)-5,6-dihydro-4H-[1,4]oxazepino[5,6,7-de]quinazolin-9-yl)-7-fluorobenzo[b]thiophene-3-carbonitrile]
- IC50 (KRAS WT): < 500 nM
- IC50 (KRAS G12S): < 500 nM

Compound: CC(C)[C@@H]1[C@H](CN2CCOc3c(Cl)c(-c4ccc(F)c5sc(N)c(C#N)c45)c(F)c4nc(OC[C@@]56CCCN5C[C@H](F)C6)nc2c34)CN1C(=O)n1cnc(Cl)n1 [Compound 493, 2-amino-4-(8-chloro-4-(((2R,3R)-1-(3-chloro-1H-1,2,4-triazole-1-carbonyl)-2-isopropylazetidin-3-yl)methyl)-10-fluoro-2-(((2R,7aS)-2-fluorotetrahydro-1H-pyrrolizin-7a (5H)-yl)methoxy)-5,6-dihydro-4H-[1,4]oxazepino[5,6,7-de]quinazolin-9-yl)-7-fluorobenzo[b]thiophene-3-carbonitrile]
- IC50 (KRAS WT): < 500 nM
- IC50 (KRAS G12S): < 500 nM

Compound: CC1([C@@H]2[C@H](CN3CCCOc4c(Cl)c(-c5ccc(F)c6sc(N)c(C#N)c56)c(F)c5nc(OC[C@@]67CCCN6C[C@H](F)C7)nc3c45)CN2C(=O)n2ccnc2)CC1 [Compound 494, 4-(4-(((2S,3R)-1-(1H-imidazole-1-carbonyl)-2-(1-methylcyclopropyl)azetidin-3-yl)methyl)-9-chloro-11-fluoro-2-(((2R,7aS)-2-fluorotetrahydro-1H-pyrrolizin-7a(5H)-yl)methoxy)-4,5,6,7-tetrahydro-[1,5]oxazocino [4,3,2-de]quinazolin-10-yl)-2-amino-7-fluorobenzo[b] thiophene-3-carbonitrile]
- IC50 (KRAS WT): < 500 nM
- IC50 (KRAS G12S): < 500 nM

Compound: C[C@H](O)[C@H]1COc2c(Cl)c(-c3ccc(F)c4sc(N)c(C#N)c34)c(F)c3nc(OC[C@@]45CCCN4C[C@H](F)C5)nc(c23)N1CC1CCCN1C(=O)n1ccnc1 (stereo partly drawn) [Compound 495, 4-((5R)-4-((1-(1H-imidazole-1-carbonyl)pyrrolidin-2-yl)methyl)-8-chloro-10-fluoro-2-(((2R,7aS)-2-fluorotetrahydro-1H-pyrrolizin-7a(5H)-yl)methoxy)-5-((S)-1-hydroxyethyl)-5,6-dihydro-4H-[1,4]oxazepino [5,6,7-de]quinazolin-9-yl)-2-amino-7-fluorobenzo[b] thiophene-3-carbonitrile]
- IC50 (KRAS WT): < 500 nM
- IC50 (KRAS G12S): < 500 nM
